# Reference: patent US20190352664A1, “COMPOSITIONS AND METHODS FOR CONTROLLING GENE EXPRESSION” (priority 2017, published 2019)
# System: Arabidopsis
# Experiment: Ribo-seq and RNA-seq global translatome profiling (translational efficiency TE, mORF/uORF ribo-shift) upon elf18 treatment
# Type: in vivo
# Set-up: key to score (Ribo-shift): Up: ribo-shift up (i.e., increased mORF/uORF ratio); Down: ribo-shift down (i.e., decreased mORF/uORF ratio)
# Conditions: shift of mORF/uORF ratio, elf18 vs Mock; per uORF
row,Molecule,score (Ribo-shift)
1,"AT2G34630.1_2: uORF of AT2G34630.1; peptide SEQ ID NO: 10 (DNA ATGAGCTGTCACTTCTTAGTAATAAGTTGA; listed as DNA, chemistry not fully specified)",Up
2,"AT1G12580.1_1: uORF of AT1G12580.1; peptide SEQ ID NO: 1 (DNA ATGCAGCTTGCGATTTCATAG; listed as DNA, chemistry not fully specified)",Up
3,"AT1700.1_1: uORF of AT1G16700.1; peptide SEQ ID NO: 2 (DNA ATGTTCTTGTGA; listed as DNA, chemistry not fully specified)",Down
4,"AT2G42950.1_1: uORF of AT2G42950.1; peptide SEQ ID NO: 12 (DNA ATGATCTTACGTGAAATTGCAGCCTAA; listed as DNA, chemistry not fully specified)",Down
5,"AT3G18140.1_2: uORF of AT3G18140.1; peptide SEQ ID NO: 17 (DNA ATGGTTGGTTTAATATTTCAATCGGGATAA; listed as DNA, chemistry not fully specified)",Down
6,"ATG48300.1_1: uORF of AT1G48300.1; peptide SEQ ID NO: 6 (DNA ATGCGGCGAGGAGAAAGAGAAGGTTAA; listed as DNA, chemistry not fully specified)",Up
7,"AT5G57460.1_1: uORF of AT5G57460.1; peptide SEQ ID NO: 37 (DNA ATGTTTCAATCTAACCATTGA; listed as DNA, chemistry not fully specified)",Up
8,"AT3G56010.1_1: uORF of AT3G56010.1; peptide SEQ ID NO: 19 (DNA ATGCGTCGCTCTTAA; listed as DNA, chemistry not fully specified)",Up
9,"AT1G72390.1_1: uORF of AT1G72390.1; peptide SEQ ID NO: 9 (DNA ATGTTTATGAATTCTTCATTGCTCTATTCTTAG; listed as DNA, chemistry not fully specified)",Down
10,"AT3G02570.1_2: uORF of AT3G02570.1; peptide SEQ ID NO: 14 (DNA ATGCTTGAGATATTTTGTTTTTACCTCCGAGAAACGGATTTAGATTCGTAA; listed as DNA, chemistry not fully specified)",Down
11,"AT1G30330.1_1: uORF of AT1G30330.1; peptide SEQ ID NO: 4 (DNA ATGTTCTGCAACAGTTGA; listed as DNA, chemistry not fully specified)",Up
12,"AT4G11110.1_1: uORF of AT4G11110.1; peptide SEQ ID NO: 21 (DNA ATGATTGGCTTCTCACGATTCGATTTTTCCGGCTCCTGTTCTTAA; listed as DNA, chemistry not fully specified)",Up
13,"AT4G37925.1_1: uORF of AT4G37925.1; peptide SEQ ID NO: 31 (DNA ATGGTTCTGTAA; listed as DNA, chemistry not fully specified)",Riboshift Down ATGGTTCTGTAA (SEQ ID
14,"AT4G38950.1_1: uORF of AT4G38950.1; peptide SEQ ID NO: 32 (DNA ATGTGCCCCAAAAGATAA; listed as DNA, chemistry not fully specified)",Down
15,"AT1G59990.1_1: uORF of AT1G59990.1; peptide SEQ ID NO: 8 (nucleic acid, listed as DNA, chemistry not fully specified) DNA: ATGAAGAGAGAGACTGAAACAGAGGTTTCTTACTTTCTTCTCTGTATCTCTCATATTTTGCTTAAACCCTAA",Down
16,"AT2G35510.1_1: uORF of AT2G35510.1; peptide SEQ ID NO: 11 (nucleic acid, listed as DNA, chemistry not fully specified) DNA: ATGGCTCGTCTTTTTCCAAACGATTTCTTCTTCTTCGTCGTCGCCGGTTTAGGGTTTCCGTTGCTGTAG",Up
17,"AT1G59700.1_1: uORF of AT1G59700.1; peptide SEQ ID NO: 7 (nucleic acid, listed as DNA, chemistry not fully specified) DNA: ATGATATGTCCGTTTAGAAACAGACAAAATAAGAAGAAGAAGAAAGAGTCGTGGAGGATTCTTCATTCTTCCTCATCCTCTTCTTCACCGATTCATTAG",Down

# Same assay, conditions: translational efficiency fold change, elf18 vs Mock; listed as shows 5′ UTR of the transcript
row,Molecule,score (TE change)
1,"AT1G48300.1: 5′ UTR of transcript (DNA CGAGATGCGGCGAGGAGAAAGAGAAGGTTAAGGTT; listed as DNA, chemistry not fully specified)",TEup (448 had increased TEfc)
2,AT2G42950.1: 5′ UTR of transcript; Magnesium transporter CorA-like family protein (nucleic acid) DNA: ACATTCATCTCTCTCTCTCAGTCAAATTGTTGTTTTCTTTCTTCGAATCGGTGCAGAAAATTCAGGGAAGTTCTGGGGAAGGTTGTTGCGTTTGACTCCTTTGGCTTAGTTTTCTTTCGAATTCCGTGCTTCCTGATGATCTTACGTGAAATTGCAGCCTAAAATTTCGAGATTGTTTTTTTTACTCAGAAAACGAGATTTGACTGATATGAATCGAAAATCTGTGATTTAAAGTGAAGC,TEdown (389 genes displayed decreased TEfc (|z|≥1.5))
3,AT2G47210.1: 5′ UTR of transcript; myb-like transcription factor family protein (nucleic acid) DNA: AAACTGCTGACCGATCCCAAAGGTTGAAAGATTCTTTGGCGCTAAAAAATCCCCAGTTCCCAAATCGGCGTCCTCGTTTGAAACCCTAATTCCTGAATCGAAGCAGATCCTGATCGAATCGAAGGTGTTCGAATGATAGCTACCCAGTAAATTCAGAACCCTAATTAACA,TEdown (389 genes displayed decreased TEfc (|z|≥1.5))
4,AT1G72390.1: 5′ UTR of transcript (nucleic acid) DNA: CCTTTCTCTTCCGATCGCATCTTCTTCAAAAATTTCCCACCTGTGTTTCACAAATTCCATGTTTATGAATTCTTCATTGCTCTATTCTTAGTCACCTTTGATTTCTCTCGCTTTCTATCCGATCCAATTGTTTGATGATCTTCTCTGTAACAAGCTCATAAGGTTTGAGCTTCATCTCTCTGGAGAGAATCC,TEup (448 had increased TEfc)
5,"AT3G03070.1: 5′ UTR of transcript; NADH-ubiquinone oxidoreductase-related (nucleic acid, listed as DNA, chemistry not fully specified, 5′ UTR of transcript; NADH-ubiquinone oxidoreductase-related) DNA: AAATAAATGCGTTGTTTGGTACAGCTTCACGAACAATCTCTCTCTCGATAGATTCTTCTTACCTCTGAATTTCTCGTTGTTGGAACA",TEdown (389 genes displayed decreased TEfc (|z|≥1.5))
6,AT2G35510.1: 5′ UTR of transcript; similar to RCD one 1 (nucleic acid) DNA: CAAGAGTAGACCGCCGACTTAGATTTTTTCGCCGACGAGAGAATATATATAAATGGCTCGTCTTTTTCCAAACGATTTCTTCTTCTTCGTCGTCGCCGGTTTAGGGTTTCCGTTGCTGTAGCAATTTTCTCTCGCTTCTCTCTCCCCTTTTACAGTTTCTCTTATATTGCTCTTGCCTTGCGTCCAATCTCAAGAGTTCATAAGAGTTGACATTTGTGAACATCGAAGAAATACGGTGACGTTTCTTCTCTGATTACTTTTTGCCAACATGAATACTAATGTATTTATCAACAAGTGCTACAGCCTGTTTTTTTCGAAGCTGTTGGTGAGTTCCCATCCTTAGTACTGCTAGACAGTTCGGTGTGTTAGTTGACTTTATATTCAAGGTTATAGGTTTAGTGTTGTTAGTAGAGAAAA,TEup (448 had increased TEfc)
7,AT3G15030.1: 5′ UTR of transcript; TCP family transcription factor 4 (nucleic acid) DNA: AGATTTTTTTTTTAAACAAAGAATGGAAAAAAATGAATAAATTTGGGAAACGAGGAAGCTTTGGTTACCCAAAAAAGAAAGAAAGAAAAAATAAAAAAAAATAAAAAGAAAAGCTTTCTCTGGGTTTTTCTTGATTGGTCAATTACACATCTCCCTTTCTCTCTTCTCTCTCTCACCTTCGCTTGCTTTGCTTGCTTCATCTCTTTGGTCTCCTTCTTGCGTTTTCTATTTACTACACAGACCAAACAATAGAGAGAGACTTTAAGCTATAGAAAAAAAGAGAGAGATTCTCTCAAATATGGGTTAGTCCACAATTTTCACTAAACCTCTTCTTCTTAGGATTGTTTTTAGGGTTAGGGTTTTGAGGTGAGGAGAGCAAGTATGCGGGAGTTTCATCCTTTTTGAGTTACTCTGGATTCCTCACCCTCTAACGACGACCACCGTCGCCGCCGCCGCCGCCGTCTCGACGAATATGCTCTACCA,TEdown (389 genes displayed decreased TEfc (|z|≥1.5))
8,AT1G59990.1: 5′ UTR of transcript; DEA(D/H)-box RNA helicase family protein (nucleic acid) DNA: AGTGAGCTAATGAAGAGAGAGACTGAAACAGAGGTTTCTTACTTTCTTCTCTGTATCTCTCATATTTTGCTTAAACCCTAAAACCCTTTTTGGATTAGGTTTTCTCCAAATCTTATCCGCCGTGATAAAATCTGATTGCTTTTTTTCTTCATGAAAGTTTGATTTGTGAAACTCG,TEdown (389 genes displayed decreased TEfc (|z|≥1.5))
9,AT2G34630.1: 5′ UTR of transcript; geranyl diphosphate synthase 1 (nucleic acid) DNA: AAGCGAACAAGTCTTTGCCTCTTTGGTTTACTTTCCTCTGTTTTCGATCCATTTAGAAAATGTTATTCACGAGGAGTGTTGCTCGGATTTCTTCTAAGTTTCTGAGAAACCGTAGCTTCTATGGCTCCTCTCAATCTCTCGCCTCTCATCGGTTCGCAATCATTCCCGATCAGGGTCACTCTTGTTCTGACTCTCCACACAAGTAGGGTTACGTTTGCAGAACAACTTATTCATTGAAATCTCCGGTTTTTGGTGGATTTAGTCATCAACTCTATCACCAGAGTAGCTCCTTGGTTGAGGAGGAGCTTGACCCATTTTCGCTTGTTGCCGATGAGCTGTCACTTCTTAGTAATAAGTTGAGAGAG,TEup (448 had increased TEfc)
